According to patent publication US5935982A, “Methods of treating retroviral infection and compounds useful therefor” (The University of North Carolina at Chapel Hill, priority 1997, dated 1999):

Tests used:
in vitro = format: cell-based; details: human, cem and magic cells
Experimental: (§1) Cell lines used were CEM cells, a human T-cell lymphona cell line, A. Kaplan et al, J. Virol. 67:4050-5 (1993), and Magic cells, J. Kimpton et al, J. Virol. 66:2232 (1992). The CEM cells were grown in RPMI-1640 medium supplemented with 5% FCS. The Magic Cells, a HELA derivative, were grown in DMEM/H supplemented with 5% FCS, G418 (20 mg/ml) and Hygromycin (10 mg/ml). The HIV isolate was strain HXB2, originally from Lee Ratner in the laboratory of Robert Gallo at the National Institutes of Health.
Three different toxicity tests were performed on the cell lines used to measure virus infectivity.
The initial test for toxicity utilized the XTT Assay as described by Weislow et al, J. Natl. Cancer Inst. 81:577 (1989). This is the standard assay used originally to measure cell toxicity by potential reverse transcriptase inhibitors. Briefly, cells were grown to cells/ml and drug dilutions were added to the medium. After two days incubation, XTT reagent is added and incubation is continued for 4 hours at 37° C. Following incubation, the plates are read at 450 minus 650 nm (the 650 value is the backround value which is automatically subtracted) with controls of media+XTT reagent without cells, and cells+media without reagent. Also a control of cells+media+XTT reagent was run for each plate. Medium without phenol red was employed to minimize background color as the XTT reagent goes from colorless (unreduced) to orange (reduced). The XTT reagent was freshly prepared on the day of assay as follows: 1 mg/ml of XTT in 0.01M phenazine methosulfate. The phenazine methosulfate solution was prepared ahead of time and stored at 4° C. in a dark bottle. The XTT reagent is added to the microtiter wells at 24 ul per 100 ul of medium. The O.D. was measured on a Vmax plate reader from Molecular Devices Co. with data reduction. Results are expressed as percent of untreated controls. The least toxic compounds were Compounds A, B, and F with toxicities values at 500 μM or greater.
Next, a plating efficiency test measured the ability of the cell to grow after incubation with drug for a number of days. Magic cells were grown from an initial cell concentration of 0.8×104 with or without various concentrations of test compound for 6 days. Plating ability of the cells was assessed by plating dilutions of each culture on plastic. Colony forming units were determined after growth for two to four days by counting colonies after staining the plates. Each sample was plated in duplicate and the colony number averaged.
The third test for cell toxicity assessed growth rate in the presence of the test compound versus a control culture. Magic cells were grown over a period of 15 days with or without various dilutions of test compound. Aliquots were removed every other day and the cells were counted in a hemocytometer.

HIV-1 integrase = biological target: T1, HIV-1 integrase (Human immunodeficiency virus type 1 group M subtype B, UniProt P04585); experiment: Integrase inhibition assay (site-specific cleavage/joining of labeled oligonucleotide substrate); format: biochemical, HIV-1 (HXB2 clone); details: initial screening at 10 μM; assay in duplicate
T1 construct: using the integrase coding domain from the HXB2 clone; made in house; host or cells: E. coli
Experimental: Purification of Integrase Protein. Integrase was overproduced in E. coli from an inducible plasmid containing the integrase sequence under control of a lacI-regulated T7 polymerase using the integrase coding domain from the HXB2 clone of HIV-1 DNA (L. Ratner et al, AIDS Res. Hum. Retroviruses 3:57 (1987)), pT7fl1-IN. A one liter culture at an O.D. of 0.6 was induced by the addition of IPTG to 0.5 mM. After three hours, the cells were harvested by centrifugation and the pellets were stored at -70° C.
The integrase protein was purified by a modification of the method of Sherman and Fyfe, Proc. Natl. Acad. Sci. USA 87:5119 (1990). The cells were lysed by thawing in a buffer (50 mM Tris-HCl pH 7.5, 5 mM dithiothreitol, 1 mM EDTA, 1 mg/ml lysozyme) on ice at 6 ml/g bacterial pellet for 30 minutes, and then incubating at 37° C. for 5 minutes. The lysate was centrifuged at 12,000×g for one hour. The pellets were resuspended in 50 mM Tris-HCl, pH 7.5, 1 mM dithiothreitol, 1 mM EDTA, 1M NaCl (4 ml/g original bacteria). The homogenate was stirred for 30 minutes at 4° C. and recentrifuged for 30 minutes at 12,000×g.
The supernatant was made 0.8M in ammonium sulfate by the slow addition of powder with stirring over a 30 minute period. The extract was then centrifuged to remove any precipitate and applied to a phenyl sepharose column. After a 50 ml wash with high salt buffer (50 mM Tris-HCl, 1 mM EDTA, 5 mM DTT, 2M NaCl), the protein was eluted with a gradient from high salt to O salt buffer containing 10% (weight/vol) glycerol and further purified through a G75 Sephadex column to remove background nuclease. A one liter culture generates enough integrase activity to perform over a thousand drug inhibition assays. […]
Cleavage of specific sites is assessed as described in Sherman et al., supra, except that the assay buffer was the same as that reported by Chow et al, Science 255:723 (1992). The substrate employed is the same as that described for use in the dumbell assay described in Chow et al., J. Virol. 68:7869 (1994), the disclosure of which is incoroprated herein by reference in its entirety. Essentially, the assay is performed with an oligonucleotide of 31 nucleotides that is self-annealing to form a dumbell shape with a nick therein. This substrate mimics the integrated virus and is specifically recognized by integrase to release 2 fragments. When the substrate is end-labeled with γ^32 P-ATP and T4 polynucleotide kinase, and treated with integrase protein, the product is site-specific cleavage of the substrate to form a very different molecular weight when electrophoresed on a denaturing polyacrylamide gel. This allows the reaction to be more easily quantitated with the phosphorimager. This assay represents the step of the integrase reaction where integrase completes its action. The IC50 value reported in Table 1 is generated by regression analysis of the percent control reaction with integrase at various drug concentrations. Initial screening of the compounds was performed at a constant 10 μM concentration for each test compound. Those with activity at 10 μM, were then used to identify IC50 values.
The other assay used consisted of the single 20 mer oligonucleotides corresponding to either the U5 or U3 ends of HIV-1 are end-labeled with ^32 P, annealed with its complement, purified, and used under the same conditions as described above for the endonuclease assay. Reaction products are denatured with formamide, electrophoresed through 20% denaturing polyacrylamide gels and visualized by autoradiography. Both cleavage and ligation activity can be assessed from one gel. To assess the ligation activity alone, "precleaved" substrate that had the -2 cleavage artificially produced by using a radiolabelled 18 mer oligonucleotide was also used for some experiments
Testing as Integrase Inhibitors. Integrase overproduced in E. coli was purified as described above in accordance with Sherman et al, supra, and used in drug inhibition assays. […]

HIV-1 = HIV-1 inhibition assay in magic (magi) cells, β-galactosidase expressing cells counted; format: cell-based, HIV-1 strain HXB2; details: for IC50: Human immunodeficiency virus 1, MAGI, magic cells, HIV-1, drug pretreatment 4 hours, fixed two days later, read-out: Anti-HIV IC50; for Index TD50/IC50: ratio of toxicity TD50 to anti-HIV IC50
Experimental: as §1
The magi cell assay described by Kimpton et al., supra, was used as described. This assay identifies individual cells infected with HIV-1 by the expression of tat, which transactivates an endogenous copy of the HIV-1 LTR linked to the lac2 reporter gene after integration, inducing β-galactosidase expression when Xgal is added to the cell medium. Any cell with integrated HIV-1 will turn blue. Thus, this assay provides a convenient way to determine the effect of HIV inhibitors at any early step up through the expression of tat, including the inhibition of integration.
The magic cells are plated in twelve-well plates one day prior to infection. The standard assay involves infection with approximately 200 infectious units of HIV-1. This gives an approximately 20 to 1 ratio of signal to background and sufficient numbers of infectious events to quantitate dim effects. The cells are pretreated with drug for 4 hours prior to virus infection, and virus adsorption takes place for 1 hour. The cells are washed with plain medium, and then medium with inhibitor is placed back on the cells. Two days later the cells are fixed after integration with Xgal the indicator reagent for β-galactosidase production. The number of β-galactosidase expressing cells are quantitated by light microscopy.
The results of comparisons of infectious units with or without various concentrations of the bis-benzimididazoles drugs in the magic cell assay are expressed as IC50 values and are compiled in Table 2 above. Note that the best anti-HIV compounds were generally also the best integrase inhibitors.

Row | Compound | CC50 (in vitro) [µM] | IC50 (HIV-1 integrase) [µM] | IC50 (HIV-1) [µM] | Index TD50/IC50 (HIV-1)
1 | Cn1c(-c2nc3ccc(C(=N)NC4CCCC4)cc3[nH]2)ccc1-c1nc2ccc(C(=N)NC3CCCC3)cc2[nH]1 [S-11] | 732 | > 10 | – | –
2 | N=C(N)c1ccc2nc(-c3cccc(-c4nc5ccc(C(=N)N)cc5[nH]4)c3)[nH]c2c1 [S-1] | 40 | 1 | – | –
3 | CC(C)NC(=N)c1ccc2nc(-c3ccc(-c4nc5ccc(C(=N)NC(C)C)cc5[nH]4)o3)[nH]c2c1 [S-16] | 238 | < 10 | 1.39 | 170.88
4 | CC(C)NC(=N)c1ccc2nc(-c3cnc(-c4nc5ccc(C(=N)NC(C)C)cc5[nH]4)o3)[nH]c2c1 [S-4] | – | < 10 | – | –
5 | c1cnc(-c2ccc3nc(-c4ccc(-c5nc6ccc(-c7ncccn7)cc6[nH]5)[nH]4)[nH]c3c2)nc1 [S-10] | – | < 10 | – | –
6 | N=C(N)c1ccc2nc(-c3ccc4oc(-c5nc6ccc(C(=N)N)cc6[nH]5)cc4c3)[nH]c2c1 [S-5] | – | < 10 | 19.8 | –
7 | CC(C)NC(=N)c1ccc2nc(-c3ccc4c(c3)Cc3cc(-c5nc6ccc(C(=N)NC(C)C)cc6[nH]5)ccc3-4)[nH]c2c1 [S-3] | – | < 10 | – | –
8 | c1cc2nc(-c3ccc(-c4nc5ccc(C6=NCCN6)cc5[nH]4)o3)[nH]c2cc1C1=NCCN1 [S-15] | 41.9 | 0.6 | 8.01 | 5.23
9 | N=C(NC1CCCC1)c1ccc2nc(-c3ccc(-c4nc5ccc(C(=N)NC6CCCC6)cc5[nH]4)[nH]3)[nH]c2c1 [S-13] | 78.2 | < 5 | – | –
10 | Cn1c(-c2nc3ccc(C(=N)N)cc3[nH]2)ccc1-c1nc2ccc(C(=N)N)cc2[nH]1 [S-7] | 90.3 | 0.85 | – | –
11 | N=C(NC1CCCC1)c1ccc2nc(-c3ccc4oc(-c5nc6ccc(C(=N)NC7CCCC7)cc6[nH]5)cc4c3)[nH]c2c1 [S-6] | – | 1.4 | – | –
12 | N=C(N)c1ccc2nc(-c3ccc(-c4nc5ccc(C(=N)N)cc5[nH]4)o3)[nH]c2c1 [S-14] | 81.5 | 0.9 | 26.7 | 3.05
13 | N=C(N)c1ccc2nc(-c3ccc(-c4nc5ccc(C(=N)N)cc5[nH]4)[nH]3)[nH]c2c1 [S-8] | – | 0.5 | – | –
14 | c1cc2[nH]c(-c3ccc(-c4nc5cc(C6=NCCN6)ccc5[nH]4)[nH]3)nc2cc1C1=NCCN1 [S-9] | 213 | > 10 | – | –
15 | c1cc(-c2nc3cc(C4=NCCN4)ccc3[nH]2)cc(-c2nc3cc(C4=NCCN4)ccc3[nH]2)c1 [S-2] | – | > 10 | – | –
16 | CC(C)NC(=N)c1ccc2nc(-c3ccc(-c4nc5ccc(C(=N)NC(C)C)cc5[nH]4)n3C)[nH]c2c1 [S-12] | 289 | < 10 | – | –
